The conditions of series [1]: cited from earlier work; for time of peak blood level after administration: after capecitabine administration.
The test system of series [2] is refractory advanced colorectal cancer. The series can be described thus: Phase I clinical study: safety of 50 mg perifosine daily with 1000 mg/m^2 capecitabine twice per day. Conditions: first dose perifosine vs perifosine for eleven days. Here is the method: A Phase I clinical study was performed for evaluating the safety of 50 mg perifosine daily in combination with 1000 mg/m^2 capecitabine twice per day in patients with refractory advanced colorectal cancer. During a 21 day cycle, perifosine was administered every day, whereas capecitabine was administered orally on days 1-14 of the cycle.
The study was performed on patients having 3rd line or higher metastatic colorectal cancer, with no prior exposure to perifosine, and who had received, or were not candidates for, regimens containing 5-fluorouracil, oxaliplatin, irinotecan, bevacizumab, and cetuximab or panitumumab. The patients had at least one measurable lesion, as well as adequate bone marrow, liver and renal function.
Toxicity was graded according to the NCI CTCAE version 3.0, and dose limiting toxicity was defined as any of the following: […]
a) Grade 3 non-hematological toxicity except alopecia, which is not reversible Grade 2 or less within 96 hours; or
Physical examination (including vital signs, weight and ECOG performance score) was performed prior to initiation of the treatment, and on day 1 (±3 days) of every cycle thereafter. Adverse event evaluations were monitored and reported promptly.

Series [3] has as its system Advancing colorectal cancer (ACRC); Metastatic colorectal cancer (MCRC). Conditions: cited from earlier work.
The subject of series [4] is metastatic colorectal cancer. As to the kind of experiment: Phase II randomized placebo-controlled expanded study: perifosine with capecitabine vs capecitabine alone. Type of series: in vivo, human. Here is the method:
As outlined above, the randomized placebo-controlled study was performed in order to evaluate the effects of perifosine in combination with various cytotoxic agents (i.e., gemcitabine, paclitaxel, docetaxel, doxorubicin, capecitabine, pemetrexed, irinotecan and pegylated liposomal doxorubicin) and to determine if co-administering perifosine and each of these cytotoxic agents results in synergy, and if such synergy overcomes resistance to chemotherapy in cancer cells.
The study was performed on patients having breast cancer, non-small cell lung cancer, colorectal cancer, prostate cancer, ovarian cancer, head and neck cancer or soft tissue sarcoma, who had received at least one prior chemotherapy regimen. The prior regimen must have been different than the single agent administered in this study. Each patient received a single agent chemotherapy regimen which was judged by a physician as likely to be as beneficial to the patient as any other available therapy.
Patients received either 50 mg perifosine or placebo daily in combination with single-agent chemotherapy.
Capecitabine: 825 mg/m^2 twice per day (i.e., 1650 mg/m^2 per day) on days 1-14 every 3 weeks, administered orally (used to treat breast, colorectal, head and neck, prostate, and ovarian cancers);
The time to progression (TTP) was a primary endpoint for the various treatment groups. Overall survival (OS) rates and overall response rates (ORR) of the patients and the proportion of progression-free patients were secondary endpoints. In addition, the safety of the combined treatments was also evaluated.
Progression and response (complete response or partial response) were determined according to RECIST 1.0 criteria.
The Kaplan-Meier method was used to calculate times to progression and overall survival. Median values of the TTP and OS were calculated, as well as the confidence intervals (CI) of the TTP and OS at a 95% confidence level. P-values were calculated for the differences between different treatments.
Safety of treatments was assessed by monitoring adverse events, which were graded according to the NCI CTCAE version 3.0.

Series [5] relates to breast cancer, non-small cell lung cancer, colorectal cancer, prostate cancer, ovarian cancer, head and neck cancer or soft tissue sarcoma. The series can be described thus: Phase II portion: perifosine or placebo with single-agent chemotherapy regimens. The following applies: 50 mg perifosine or placebo daily with single-agent chemotherapy. It is filed as in vivo, human. Here is the method:
The prior regimen must have been different than the single agent administered in this study. Each patient received a single agent chemotherapy regimen which was judged by a physician as likely to be as beneficial to the patient as any other available therapy. […] The single-agent chemotherapy regimens were as follows: Paclitaxel: 175 mg/m^2 every 3 weeks or 80 mg/m^2 on days 1, 8 and 15 every 4 weeks, by intravenous infusion over 1 to 3 hours (used to treat breast, prostate and lung cancers); Docetaxel: 75 mg/m^2 every 3 weeks or 35 mg/m^2 on days 1, 8 and 15 every 4 weeks, by intravenous infusion over 1 hour (used to treat head and neck, lung, ovarian and prostate cancers); Gemcitabine: 1000 mg/m^2 on days 1 and 8 every 3 weeks, by infusion over 30 minutes (used to treat sarcoma and lung, ovarian, breast and head and neck cancers); Doxorubicin: 60 mg/m^2 every 3 weeks, by infusion over 30 minutes (used to treat sarcoma and prostate, ovarian, and breast cancers); Pegylated liposomal doxorubicin: 40 mg/m^2 every 4 weeks, by infusion over 30 minutes (used to treat sarcoma and ovarian and breast cancers); Capecitabine: 825 mg/m^2 twice per day (i.e., 1650 mg/m^2 per day) on days 1-14 every 3 weeks, administered orally (used to treat breast, colorectal, head and neck, prostate, and ovarian cancers); Pemetrexed: 500 mg/m^2 every 3 weeks, by intravenous infusion over 10 minutes (used to treat lung and colorectal cancers); and Irinotecan: 100 mg/m^2 on days 1, 8 and 15 every 4 weeks, by intravenous infusion over 90 minutes (used to treat sarcoma and colorectal and lung cancers). The time to progression (TTP) was a primary endpoint for the various treatment groups. Overall survival (OS) rates and overall response rates (ORR) of the patients and the proportion of progression-free patients were secondary endpoints. In addition, the safety of the combined treatments was also evaluated. […] The Kaplan-Meier method was used to calculate times to progression and overall survival. Median values of the TTP and OS were calculated, as well as the confidence intervals (CI) of the TTP and OS at a 95% confidence level. P-values were calculated for the differences between different treatments.

Setting [6] is: 2x daily 1250 mg/m2 (total 2500 mg/m2), MCRC, Asia-Pac J Clin Oncol. 2011, 82-87.
Where [7] appears, read: 2x daily 1000-1250 mg/m2, ACRC, Acta Oncologica, 2005, 44: 236-239.
The mark [8] stands for this setting: 7 patients 2x daily 1250 mg/m2, after toxicity dose diluted to 1000 mg/m2, ACRC, Anticancer Res. 26: 1669-1672 (2006).
Setting [9] is: 5-FU-refractory metastatic colorectal cancer patients, listed as capecitabine alone.
[10] abbreviates: 5-FU-refractory metastatic colorectal cancer patients, listed as placebo+capecitabine.
Setting [11] is: after 12 weeks, 5-FU refractory evaluable patients (14 combination, 11 capecitabine alone).
[12] abbreviates: after 12 weeks, evaluable metastatic colorectal cancer patients (20 combination, 15 capecitabine alone).
Setting [13] is: all metastatic colorectal cancer patients, 50 mg perifosine or placebo daily + capecitabine 1650 mg/m^2 per day days 1-14 every 21 days.

The structures appear in SMILES notation. Read-outs that look alike come from different tables or passages of the source.

Consider `O=c1[nH]cc(F)c(=O)[nH]1` [5-fluorouracil], for which the “time of peak blood level after administration” value in series [1] is 2 h.

As for `CCCCCOC(=O)Nc1nc(=O)n([C@@H]2O[C@H](C)[C@@H](O)[C@H]2O)cc1F` [capecitabine], the “PK parameters for capecitabine or its metabolites, Cycle 1 Day 1 vs Cycle 1 Day 11” value in series [2] is “no statistically significant differences”. The “Median OS” value is 5.3 months in series [3] (setting [6]); 6.1 mos in series [3] (setting [7]); 5.2 mos in series [3] (setting [8]); 6.6 mo. for 5-FU in series [4] (5-FU refractory); “refractory; 10.9 mo” in series [4] (all patients). For the same compound, the “Median TTP” value in series [3] (setting [6]) is given as 2.3 months; in series [3] (setting [7]) it was 2.8 mos; in series [3] (setting [8]), 4 mos; in series [4] (5-FU refractory) it was 10 weeks for 5-FU; in series [4] (all patients), “refractory; 11 weeks”. In addition, in series [1], the “time of peak blood level after administration” value is “about 1.5 hours”. Besides, the “effect of food on capecitabine absorption” value in series [1] (in vivo) is “reduces both the rate and extent”. Moreover, in series [1] (in vivo), the elimination half-life entry is recorded as “about ¾”. Besides, the “median overall survival (OS)” value in series [4] (setting [9]) turned out to be 6.8 months; in series [4] (setting [10]), 6.6 months; in series [4] (setting [13]) it was 10.9 months. The “median time to progression (TTP)” value in series [4] (setting [9]) was 10 weeks; in series [4] (setting [10]) it was 11 weeks; in series [4] (setting [13]), 11 weeks. The “Grade 3 and 4 adverse events: anemia” value in series [4] (NCI CTCAE version 3.0) is 0%. For the same compound, the “Grade 3 and 4 adverse events: hand/foot syndrome” value in series [4] (NCI CTCAE version 3.0) is on record as 0%. The “patients who achieved stable disease (progression-free for 3 months or greater)” value was determined as 3 in series [4] (setting [11]) and 6 in series [4] (setting [12]). For the same compound, the “patients with partial response” value in series [4] (setting [11]) is listed as “none”; in series [4] (setting [12]) it was 1. Besides, the “proportion of patients who achieved stable disease” value in series [4] (setting [11]) amounted to 27%; in series [4] (setting [12]) it was 40%. In addition, in series [4] (after 12 weeks, evaluable metastatic colorectal cancer patients (20 combination, 15 capecitabine alone), RECIST 1.0), the “patients with complete response” value is listed as “none”. The “patients who discontinued treatment due to an adverse event” value in series [4] (in vivo) was 2.

`CC(=O)O[C@@]12CO[C@@H]1C[C@H](O)[C@@]1(C)C(=O)[C@H](O)C3=C(C)[C@@H](OC(=O)[C@H](O)[C@@H](NC(=O)OC(C)(C)C)c4ccccc4)C[C@@](O)([C@@H](OC(=O)c4ccccc4)[C@H]21)C3(C)C` [docetaxel]: the “beneficial effect of perifosine (improvement in combination with perifosine) in subjects receiving the chemotherapeutic agent” value (shortened to “beneficial effect of perifosine”) in series [5] is “not to occur”.

In the case of `COc1cccc2c1C(=O)c1c(O)c3c(c(O)c1C2=O)C[C@@](O)(C(=O)CO)C[C@@H]3O[C@H]1C[C@H](N)[C@H](O)[C@H](C)O1` [doxorubicin], the “beneficial effect of perifosine” value in series [5] is “not to occur”.

For `Nc1ccn([C@@H]2O[C@H](CO)[C@@H](O)C2(F)F)c(=O)n1` [gemcitabine], the “beneficial effect of perifosine” value in series [5] is recorded as “not to occur”.

Take `CCc1c2c(nc3ccc(OC(=O)N4CCC(N5CCCCC5)CC4)cc13)-c1cc3c(c(=O)n1C2)COC(=O)[C@]3(O)CC` [irinotecan]: the “beneficial effect of perifosine” value in series [5] is “not to occur”.

For the compound `CC(=O)O[C@H]1C(=O)[C@@]2(C)[C@H]([C@H](OC(=O)c3ccccc3)[C@]3(O)C[C@H](OC(=O)[C@H](O)[C@@H](NC(=O)c4ccccc4)c4ccccc4)C(C)=C1C3(C)C)[C@]1(OC(C)=O)CO[C@@H]1C[C@@H]2O` [paclitaxel], in series [5], the “beneficial effect of perifosine” value is “not to occur”.

Regarding `Nc1nc2[nH]cc(CCc3ccc(C(=O)N[C@@H](CCC(=O)O)C(=O)O)cc3)c2c(=O)[nH]1` [pemetrexed], the “beneficial effect of perifosine” value in series [5] was “not to occur”.

The values above are taken from patent US8383607B2, “Perifosine and capecitabine as a combined treatment for cancer” (AEterna Zentaris GmbH, priority 2011, dated 2013).
